Results: patent US20130303509A1, “NAMPT INHIBITORS” (AbbVie Inc., priority 2012, published 2013)

test system: PC3 cells; experiment: NAMPT Cell Proliferation Assay; type: cell-based; details: Homo sapiens, PC-3, 120 h, 5 days incubation, cell viability by Cell Titer Glo
Summary of the method: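 Five-day CellTiter-Glo viability readout in PC3 cells grown in RPMI/10% heat-inactivated FBS. Compounds added after overnight attachment as a 10-fold dilution series, […]. Percent inhibition fitted to sigmoidal dose-response to derive IC50.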

Row | IC50 | Compound
1 | 41.6 nM | CCOCC(=O)N1CCC(c2ccc(NC(=O)[C@H]3CCN(c4cccnn4)C3)cc2)CC1 [Example 635, (3S)-N-{4-[1-(ethoxyacetyl)piperidin-4-yl]phenyl}-1-(pyridazin-3-yl)pyrrolidine-3-carboxamide]
2 | 8.53 nM | CCCC(C)C(=O)N1CCC(c2ccc(NC(=O)[C@H]3CCN(c4cccnn4)C3)cc2)CC1 (stereo partly drawn) [Example 670, (3S)-N-{4-[1-(2-methylpentanoyl)piperidin-4-yl]phenyl}-1-(pyridazin-3-yl)pyrrolidine-3-carboxamide]
3 | 29.9 nM | O=C(Nc1ccc(C2CCN(C(=O)c3ccc(O)cc3)CC2)cc1)[C@H]1CCN(c2cccnn2)C1 [Example 732, (3S)-N-{4-[1-(4-hydroxybenzoyl)piperidin-4-yl]phenyl}-1-(pyridazin-3-yl)pyrrolidine-3-carboxamide]
4 | 79.1 nM | O=C(Nc1ccc(OC2CCN(C(=O)c3ccsc3)CC2)cc1)C1CN(c2ccnnc2)C1 [Example 278, 1-(pyridazin-4-yl)-N-(4-{[1-(thiophen-3-ylcarbonyl)piperidin-4-yl]oxy}phenyl)azetidine-3-carboxamide]
5 | 59.9 nM | CCCCN1CCC(c2ccc(NC(=O)C3CN(c4cccnc4)C3)cc2)CC1 [Example 91, N-[4-(1-butylpiperidin-4-yl)phenyl]-1-(pyridin-3-yl)azetidine-3-carboxamide]
6 | 2450 nM | CC(C)C(=O)N1CCC(c2ccc(C(=O)N[C@H]3CCN(c4cccnn4)C3)cc2)CC1 [Example 752, 4-[1-(2-methylpropanoyl)piperidin-4-yl]-N-[(3S)-1-(pyridazin-3-yl)pyrrolidin-3-yl]benzamide]
7 | 6.35 nM | O=C(Nc1ccc(OC2CCN(C(=O)c3ccco3)CC2)cc1)C1CN(c2cccnc2)C1 [Example 63, N-(4-{[1-(furan-2-ylcarbonyl)piperidin-4-yl]oxy}phenyl)-1-(pyridin-3-yl)azetidine-3-carboxamide]
8 | 64.9 nM | O=C(Nc1ccc(C2CCN(C(=O)Cc3ccc(Cl)cc3)CC2)cc1)[C@H]1CCN(c2cccnn2)C1 [Example 686, (3S)-N-(4-{1-[(4-chlorophenyl)acetyl]piperidin-4-yl}phenyl)-1-(pyridazin-3-yl)pyrrolidine-3-carboxamide]
9 | 1.77 nM | Cc1ccc(C)c(C(=O)N2CCC(c3ccc(NC(=O)C4CN(c5cccnn5)C4)cc3)CC2)c1 [Example 359, N-{4-[1-(2,5-dimethylbenzoyl)piperidin-4-yl]phenyl}-1-(pyridazin-3-yl)azetidine-3-carboxamide]
10 | 7.4 nM | O=C(Nc1ccc(C2CCN(C(=O)C3CCOC3)CC2)cc1)C1CN(c2cccnn2)C1 (centres unmarked) [Example 414, 1-(pyridazin-3-yl)-N-{4-[1-(tetrahydrofuran-3-ylcarbonyl)piperidin-4-yl]phenyl}azetidine-3-carboxamide]
11 | 72.3 nM | O=C(Nc1ccc(OC2CCN(C(=O)CC3CC3)CC2)cc1)C1CN(c2ccnnc2)C1 [Example 293, N-(4-{[1-(cyclopropylacetyl)piperidin-4-yl]oxy}phenyl)-1-(pyridazin-4-yl)azetidine-3-carboxamide]
12 | 9.05 nM | O=C(Nc1ccc(OC2CCN(C(=O)c3ccc(F)cc3)CC2)cc1)C1CN(c2cccnn2)C1 [Example 230, N-(4-{[1-(4-fluorobenzoyl)piperidin-4-yl]oxy}phenyl)-1-(pyridazin-3-yl)azetidine-3-carboxamide]
13 | 79.7 nM | O=C(Nc1ccc(S(=O)(=O)C2CCN(C(=O)C3CCCC3)CC2)cc1)C1CN(c2cccnn2)C1 [Example 599, N-(4-{[1-(cyclopentylcarbonyl)piperidin-4-yl]sulfonyl}phenyl)-1-(pyridazin-3-yl)azetidine-3-carboxamide]
14 | 7620 nM | Cc1cc(N2CC(C(=O)Nc3ccc(C4CCN(C(=O)c5ccccc5)CC4)cc3)C2)cnc1F [Example 665, N-[4-(1-benzoylpiperidin-4-yl)phenyl]-1-(6-fluoro-5-methylpyridin-3-yl)azetidine-3-carboxamide]
15 | 1.37 nM | O=C(Nc1ccc(C2CCN(C(=O)C3CCCO3)CC2)cc1)C1CN(c2cccnn2)C1 (centres unmarked) [Example 412, 1-(pyridazin-3-yl)-N-{4-[1-(tetrahydrofuran-2-ylcarbonyl)piperidin-4-yl]phenyl}azetidine-3-carboxamide]
16 | 6.84 nM | O=C(Nc1ccc(O[C@@H]2CCN(C(=O)c3ccccn3)C2)cc1)C1CN(c2cccnn2)C1 [Example 505, 1-(pyridazin-3-yl)-N-(4-{[(3R)-1-(pyridin-2-ylcarbonyl)pyrrolidin-3-yl]oxy}phenyl)azetidine-3-carboxamide]
17 | 0.63 nM | CC1(C(=O)N2CCC(c3ccc(NC(=O)C4CN(c5cccnc5)C4)cc3)CC2)CCCCC1 [Example 117, N-(4-{1-[(1-methylcyclohexyl)carbonyl]piperidin-4-yl}phenyl)-1-(pyridin-3-yl)azetidine-3-carboxamide]

Row | IC50 | Compound
18 | 6.75 nM | O=C(Nc1ccc(C2CCN(C(=O)Cc3ccc(Cl)cc3Cl)CC2)cc1)C1CN(c2cccnn2)C1 [Example 405, N-(4-{1-[(2,4-dichlorophenyl)acetyl]piperidin-4-yl}phenyl)-1-(pyridazin-3-yl)azetidine-3-carboxamide]
19 | 3.67 nM | CC1(C(=O)N2CCC(Oc3ccc(NC(=O)C4CN(c5cccnc5)C4)cc3)CC2)CCCCC1 [Example 53, N-[4-({1-[(1-methylcyclohexyl)carbonyl]piperidin-4-yl}oxy)phenyl]-1-(pyridin-3-yl)azetidine-3-carboxamide]
20 | 1.61 nM | CC(C)(C)Cc1nnc(-c2ccc(NC(=O)C3CN(c4cccnn4)C3)cc2)o1 [Example 803, N-{4-[5-(2,2-dimethylpropyl)-1,3,4-oxadiazol-2-yl]phenyl}-1-(pyridazin-3-yl)azetidine-3-carboxamide]
21 | 622 nM | COCC(=O)N1CCC(Oc2ccc(NC(=O)C3CN(c4ccnnc4)C3)cc2)CC1 [Example 267, N-(4-{[1-(methoxyacetyl)piperidin-4-yl]oxy}phenyl)-1-(pyridazin-4-yl)azetidine-3-carboxamide]
22 | 113 nM | O=C(Nc1ccc(S(=O)(=O)C2CCN(C(=O)c3ccc(F)cc3)CC2)cc1)C1CN(c2cccnn2)C1 [Example 588, N-(4-{[1-(4-fluorobenzoyl)piperidin-4-yl]sulfonyl}phenyl)-1-(pyridazin-3-yl)azetidine-3-carboxamide]
23 | 6.2 nM | CC(C)(C)Cn1cc(-c2ccc(NC(=O)[C@H]3CCN(c4cccnn4)C3)cc2)cn1 [Example 759, (3S)-N-{4-[1-(2,2-dimethylpropyl)-1H-pyrazol-4-yl]phenyl}-1-(pyridazin-3-yl)pyrrolidine-3-carboxamide]
24 | 4.24 nM | O=C(Nc1ccc(O[C@@H]2CCN(C(=O)C(F)(F)c3ccccc3)C2)cc1)C1CN(c2ccnnc2)C1 [Example 480, N-[4-({(3R)-1-[difluoro(phenyl)acetyl]pyrrolidin-3-yl}oxy)phenyl]-1-(pyridazin-4-yl)azetidine-3-carboxamide]
25 | 6.93 nM | CCC(CC)C(=O)N1CCC(c2ccc(NC(=O)[C@H]3CCN(c4cccnn4)C3)cc2)CC1 [Example 707, (3S)-N-{4-[1-(2-ethylbutanoyl)piperidin-4-yl]phenyl}-1-(pyridazin-3-yl)pyrrolidine-3-carboxamide]
26 | 8.43 nM | O=C(Nc1ccc(C2CCN(C(=O)c3cc(C(F)(F)F)ccc3F)CC2)cc1)[C@H]1CCN(c2cccnn2)C1 [Example 703, (3S)-N-(4-{1-[2-fluoro-5-(trifluoromethyl)benzoyl]piperidin-4-yl}phenyl)-1-(pyridazin-3-yl)pyrrolidine-3-carboxamide]
27 | 0.3 nM | O=C(Nc1ccc(C2CCN(C(=O)c3ccccc3)CC2)cc1)C1CN(c2cccnn2)C1 [Example 435, N-[4-(1-benzoylpiperidin-4-yl)phenyl]-1-(pyridazin-3-yl)azetidine-3-carboxamide]
28 | 0.3 nM | CCOCC(=O)N1CCC(c2ccc(NC(=O)C3CN(c4cccnc4)C3)cc2)CC1 [Example 131, N-{4-[1-(ethoxyacetyl)piperidin-4-yl]phenyl}-1-(pyridin-3-yl)azetidine-3-carboxamide]
29 | 627 nM | Cc1ccc(C(=O)N2CCC(c3ccc(NC(=O)C4CN(c5cccnc5C)C4)cc3)CC2)s1 [Example 186, 1-(2-methylpyridin-3-yl)-N-(4-{1-[(5-methylthiophen-2-yl)carbonyl]piperidin-4-yl}phenyl)azetidine-3-carboxamide]
30 | 65.9 nM | O=C(Nc1ccc(O[C@@H]2CCN(C(=O)c3cccc(Cl)c3)C2)cc1)C1CN(c2ccnnc2)C1 [Example 464, N-(4-{[(3R)-1-(3-chlorobenzoyl)pyrrolidin-3-yl]oxy}phenyl)-1-(pyridazin-4-yl)azetidine-3-carboxamide]
31 | 2.28 nM | O=C(Nc1ccc(C2CCN(C(=O)CCCc3cccs3)CC2)cc1)C1CN(c2cccnn2)C1 [Example 415, 1-(pyridazin-3-yl)-N-(4-{1-[4-(thiophen-2-yl)butanoyl]piperidin-4-yl}phenyl)azetidine-3-carboxamide]
32 | 1.07 nM | CC1(C(=O)N2CCC(c3ccc(NC(=O)C4CN(c5cccnn5)C4)cc3)CC2)CC1 [Example 379, N-(4-{1-[(1-methylcyclopropyl)carbonyl]piperidin-4-yl}phenyl)-1-(pyridazin-3-yl)azetidine-3-carboxamide]
33 | 64.2 nM | O=C(Nc1ccc(O[C@@H]2CCN(C(=O)Cc3ccc(OC(F)(F)F)cc3)C2)cc1)C1CN(c2cccnn2)C1 [Example 488, 1-(pyridazin-3-yl)-N-(4-{[(3R)-1-{[4-(trifluoromethoxy)phenyl]acetyl}pyrrolidin-3-yl]oxy}phenyl)azetidine-3-carboxamide]
34 | 0.23 nM | O=C(Nc1ccc(C2CCN(C(=O)C3CCCC3)CC2)cc1)C1CN(c2cccnc2)C1 [Example 138, N-{4-[1-(cyclopentylcarbonyl)piperidin-4-yl]phenyl}-1-(pyridin-3-yl)azetidine-3-carboxamide]

Row | Compound | IC50
35 | CC(C)C(=O)N1C2CCC1CC(c1ccc(NC(=O)C3CN(c4cccnn4)C3)cc1)C2 (centres unmarked) [Example 840, N-{4-[8-(2-methylpropanoyl)-8-azabicyclo[3.2.1]oct-3-yl]phenyl}-1-(pyridazin-3-yl)azetidine-3-carboxamide] | 2.8 nM
